Test results taken from patent US4468511A, “C-20- And C-23-Modified macrolide derivatives” (Eli Lilly and Company, priority 1983, dated 1984).
Converted amounts (≈) assume the structure as drawn. Like-named read-outs stand apart in the source and are kept apart here.

Experiments:
[1] = tested on: Haemophilus influenzae 76; test: MIC, standard agar-dilution assay; assay type: cell-based; conditions: Haemophilus influenzae, 76
Procedure: (§1) The MIC's in Table II were determined by standard agar-dilution assays. The MIC's in Table III were obtained using a conventional broth-dilution microtiter test.

[2] = tested on: Staphylococcus epidermidis EPI2; test: MIC, standard agar-dilution assay; assay type: cell-based
Procedure: as §1

[3] = tested on: Staphylococcus aureus X400; test: MIC, standard agar-dilution assay; assay type: cell-based
Procedure: as §1

[4] = tested on: Haemophilus influenzae C.L.; test: MIC, standard agar-dilution assay; assay type: cell-based
Procedure: as §1

[5] = tested on: Klebsiella pneumoniae X26; test: MIC, standard agar-dilution assay; assay type: cell-based
Procedure: (§2) Certain of the derivatives are active against some gram-negative bacteria, such as Pasteurella species. The MIC's in Table II were determined by standard agar-dilution assays. The MIC's in Table III were obtained using a conventional broth-dilution microtiter test.

[6] = tested on: Klebsiella pneumoniae KAE; test: MIC, standard agar-dilution assay; assay type: cell-based; conditions: agar-dilution; Klebsiella pneumoniae KAE; read-out: MIC
Procedure: as §2

[7] = tested on: Staphylococcus aureus X1.1; test: MIC, standard agar-dilution assay; assay type: cell-based
Procedure: as §2

[8] = tested on: Streptococcus Group D X66; test: MIC, standard agar-dilution assay; assay type: cell-based
Procedure: as §2

[9] = tested on: Staphylococcus aureus V41; test: MIC, standard agar-dilution assay; assay type: cell-based; conditions: Staphylococcus aureus, V41
Procedure: as §2

[10] = tested on: Streptococcus pneumoniae Park I; test: MIC, standard agar-dilution assay; assay type: cell-based; conditions: Streptococcus pneumoniae
Procedure: as §2

Escherichia coli TEM = test: MIC, standard agar-dilution assay; assay type: cell-based; conditions: agar-dilution; Escherichia coli TEM; read-out: MIC
Procedure: as §2

[11] = tested on: Streptococcus pyogenes 9960; test: MIC, standard agar-dilution assay; assay type: cell-based
Procedure: as §2

Escherichia coli EC14 = test: MIC, standard agar-dilution assay; assay type: cell-based; conditions: agar-dilution; Escherichia coli EC14; read-out: MIC
Procedure: as §2

[12] = tested on: Streptococcus pyogenes C203; test: MIC, standard agar-dilution assay; assay type: cell-based
Procedure: as §2

[13] = tested on: Staphylococcus epidermidis EPI1; test: microbe, parasite or virus in culture; assay type: cell-based; conditions: agar-dilution; Staphylococcus epidermidis EPI1; read-out: MIC
Procedure: as §1

[14] = tested on: Staphylococcus aureus S13E; test: microbe, parasite or virus in culture; assay type: cell-based
Procedure: as §1

[15] = tested on: Pasteurella hemolytica 23C; test: MIC, conventional broth-dilution microtiter test; assay type: cell-based; conditions: broth-dilution microtiter; Pasteurella hemolytica 23C; read-out: MIC
Procedure: as §2

[16] = tested on: Pasteurella multocida 22A; test: MIC, conventional broth-dilution microtiter test; assay type: cell-based; conditions: broth-dilution microtiter; Pasteurella multocida 22A; read-out: MIC
Procedure: as §2

Streptococcus sp. 80 = test: MIC, conventional broth-dilution microtiter test; assay type: cell-based; conditions: broth-dilution microtiter; Streptococcus sp. 80; read-out: MIC
Procedure: as §2

[17] = tested on: Pasteurella multocida 60A; test: MIC, conventional broth-dilution microtiter test; assay type: cell-based; conditions: broth-dilution microtiter; Pasteurella multocida 60A, Avian isolate; read-out: MIC
Procedure: as §2

[18] = tested on: Pasteurella multocida 68C; test: MIC, conventional broth-dilution microtiter test; assay type: cell-based; conditions: broth-dilution microtiter; Pasteurella multocida 68C; read-out: MIC
Procedure: as §2

Mycoplasma hyorhinis = test: MIC, conventional broth-dilution microtiter test; assay type: cell-based; conditions: broth-dilution microtiter; Mycoplasma hyorhinis; read-out: MIC
Procedure: as §2

Mycoplasma gallisepticum = test: MIC, conventional broth-dilution microtiter test; assay type: cell-based; conditions: Mycoplasmoides gallisepticum; broth-dilution microtiter; Mycoplasma gallisepticum; read-out: MIC
Procedure: as §2

Staphylococcus aureus = test: MIC, conventional broth-dilution microtiter test; assay type: cell-based; conditions: broth-dilution microtiter, read-out: MIC
Procedure: as §2

[19] = tested on: Mycoplasma gallisepticum 34159; test: MIC, conventional broth-dilution microtiter test; assay type: cell-based; conditions: Mycoplasmoides gallisepticum; broth-dilution microtiter; Mycoplasma gallisepticum 34159, Resistant strain; read-out: MIC
Procedure: as §2

[20] = tested on: Pasteurella multocida 17E; test: MIC, conventional broth-dilution microtiter test; assay type: cell-based; conditions: broth-dilution microtiter; Pasteurella multocida 17E, Bovine isolate; read-out: MIC
Procedure: as §2

[21] = tested on: Mycoplasma gallisepticum 41313; test: MIC, conventional broth-dilution microtiter test; assay type: cell-based; conditions: Mycoplasmoides gallisepticum; broth-dilution microtiter; Mycoplasma gallisepticum 41313, Resistant strain; read-out: MIC
Procedure: as §2

Mycoplasma synoviae = test: MIC, conventional broth-dilution microtiter test; assay type: cell-based; conditions: Mycoplasmopsis synoviae; broth-dilution microtiter; Mycoplasma synoviae; read-out: MIC
Procedure: as §2

[22] = tested on: Pasteurella hemolytica 41D; test: MIC, conventional broth-dilution microtiter test; assay type: cell-based; conditions: broth-dilution microtiter; Pasteurella hemolytica 41D; read-out: MIC
Procedure: as §2

[23] = tested on: Pasteurella multocida 40G; test: MIC, conventional broth-dilution microtiter test; assay type: cell-based; conditions: broth-dilution microtiter; Pasteurella multocida 40G; read-out: MIC
Procedure: as §2

[24] = tested on: Pasteurella hemolytica 22C; test: MIC, conventional broth-dilution microtiter test; assay type: cell-based; conditions: broth-dilution microtiter; Pasteurella hemolytica 22C; read-out: MIC
Procedure: as §2

[25] = tested on: Streptococcus pyogenes C203; test: Protection of mice experimentally infected with S. pyogenes C203; assay type: in vivo; conditions: mg/kg × 2, doses given 1 and 4 hours postinfection
Procedure: Some of the derivatives of this invention have shown in vivo antimicrobial activity against experimentally-induced infections in laboratory animals. When two doses of test compound were administered to mice experimentally infected with S. pyogenes C203, the activity observed was measured as an ED50 value [effective dose in mg/kg to protect 50% of the test animals: see Warren Wick, et al., J. Bacteriol. 81, 233-235 (1961)].

[26] = Staphylococcus epidermidis, EPI2
[27] = agar-dilution, Haemophilus influenzae C.L., Ampicillin-sensitive strain, read-out: MIC
[28] = agar-dilution, Klebsiella pneumoniae X26, read-out: MIC
[29] = agar-dilution, Streptococcus Group D X66, read-out: MIC
[30] = agar-dilution, Streptococcus 9960, read-out: MIC
[31] = agar-dilution, Staphylococcus aureus X400, Methicillin-resistant strain, read-out: MIC
[32] = agar-dilution, Staphylococcus aureus X1.1, read-out: MIC
[33] = agar-dilution, Streptococcus pyogenes C203, read-out: MIC

SMILES | MIC [1] [µg/mL] | MIC [6] [µg/mL] | MIC [9] [µg/mL] | MIC [10] [µg/mL] | MIC (Escherichia coli TEM) [µg/mL] | MIC (Escherichia coli EC14) [µg/mL] | MIC [13] [µg/mL] | MIC [14] [µg/mL] | MIC [15] [µg/mL] | MIC [16] [µg/mL] | MIC (Streptococcus sp. 80) [µg/mL] | MIC [17] [µg/mL] | MIC [18] [µg/mL] | MIC (Mycoplasma hyorhinis) [µg/mL] | MIC (Mycoplasma gallisepticum) [µg/mL] | MIC (Staphylococcus aureus) [µg/mL] | MIC [19] [µg/mL] | MIC [20] [µg/mL] | MIC (Mycoplasma synoviae) [µg/mL] | MIC [22] [µg/mL] | further results
CCC1OC(=O)CC(O)C(C)C(OC2OC(C)C(O)C(N(C)C)C2O)C(CCN(C)C)CC(C)C(=O)C=CC(C)=CC1CO (stereo not shown) [Compound 2, 20-N-Dimethylamino-20-deoxy-20-dihydro-OMT] | 32 (≈ 51.1 µM) | > 128 | 32 (≈ 51.1 µM) | 32 (≈ 51.1 µM) | 128 (≈ 204 µM) | > 128 | 16 (≈ 25.5 µM) | 32 (≈ 51.1 µM) | 50 (≈ 79.8 µM) | 25 (≈ 39.9 µM) | 25 (≈ 39.9 µM) | 25 (≈ 39.9 µM) | 12.5 (≈ 19.9 µM) | 50 (≈ 79.8 µM) | 50 (≈ 79.8 µM) | 50 (≈ 79.8 µM) | > 50 | 25 (≈ 39.9 µM) | > 50 | 50 (≈ 79.8 µM) | MIC [2, 26]: 64 µg/mL (≈ 102 µM); MIC ([3]; Staphylococcus aureus, X400): 64 µg/mL (≈ 102 µM); MIC [4, 27]: 16 µg/mL (≈ 25.5 µM); MIC [5, 28]: 16 µg/mL (≈ 25.5 µM); MIC ([7]; Staphylococcus aureus, X1.1): 32 µg/mL (≈ 51.1 µM); MIC [8, 29]: > 128 µg/mL; MIC [11, 30]: > 128 µg/mL; MIC ([12]; Streptococcus pyogenes, C203): 32 µg/mL (≈ 51.1 µM); MIC [21]: 50 µg/mL (≈ 79.8 µM); MIC [23]: 50 µg/mL (≈ 79.8 µM); MIC [24]: 50 µg/mL (≈ 79.8 µM)
CCC1OC(=O)CC(O)C(C)C(OC2OC(C)C(O)C(N(C)C)C2O)C(CCNC)CC(C)C(=O)C=CC(C)=CC1CO (stereo not shown) [Compound 3, 20-N-Methylamino-20-deoxy-20-dihydro-OMT] | 128 (≈ 209 µM) | > 128 | 64 (≈ 104 µM) | 16 (≈ 26.1 µM) | 128 (≈ 209 µM) | > 128 | 32 (≈ 52.2 µM) | 64 (≈ 104 µM) | 50 (≈ 81.6 µM) | 50 (≈ 81.6 µM) | 50 (≈ 81.6 µM) | 50 (≈ 81.6 µM) | 25 (≈ 40.8 µM) | > 50 | 50 (≈ 81.6 µM) | 50 (≈ 81.6 µM) | > 50 | 50 (≈ 81.6 µM) | 25 (≈ 40.8 µM) | 50 (≈ 81.6 µM) | MIC [2, 26]: 64 µg/mL (≈ 104 µM); MIC [3, 31]: 128 µg/mL (≈ 209 µM); MIC ([4]; Haemophilus influenzae): 128 µg/mL (≈ 209 µM); MIC ([5]; Klebsiella pneumoniae, X26): 64 µg/mL (≈ 104 µM); MIC [7, 32]: 32 µg/mL (≈ 52.2 µM); MIC [8, 29]: > 128 µg/mL; MIC [11, 30]: > 128 µg/mL; MIC [12, 33]: 128 µg/mL (≈ 209 µM); MIC [23]: 50 µg/mL (≈ 81.6 µM); MIC [24]: 50 µg/mL (≈ 81.6 µM)
CCC1OC(=O)CC(O)C(C)C(OC2OC(C)C(OC3CC(C)(O)C(O)C(C)O3)C(N(C)C)C2O)C(CCNCCc2ccccc2)CC(C)C(=O)C=CC(C)=CC1CO (stereo not shown) [Compound 16] | 16 (≈ 18.9 µM) | > 128 | 32 (≈ 37.8 µM) | 4 (≈ 4.72 µM) | > 128 | > 128 | 16 (≈ 18.9 µM) | 32 (≈ 37.8 µM) | > 50 | > 50 | 12.5 (≈ 14.8 µM) | > 50 | > 50 | > 50 | 6.25 (≈ 7.38 µM) | 12.5 (≈ 14.8 µM) | > 50 | > 50 | 6.25 (≈ 7.38 µM) | > 50 | MIC ([2]; agar-dilution, Staphylococcus epidermidis EPI2, read-out: MIC): 64 µg/mL (≈ 75.6 µM); MIC [3, 31]: 64 µg/mL (≈ 75.6 µM); MIC [4, 27]: 64 µg/mL (≈ 75.6 µM); MIC [5, 28]: 128 µg/mL (≈ 151 µM); MIC [7, 32]: 16 µg/mL (≈ 18.9 µM); MIC [8]: 32 µg/mL (≈ 37.8 µM); MIC [11]; 9960: 32 µg/mL (≈ 37.8 µM); MIC [12, 33]: 8 µg/mL (≈ 9.44 µM); ED50 ([25]; C203, mice, oral, read-out: ED50 Oral): 88 mg/kg; ED50 ([25]; C203, sc, mice, subcutaneous, read-out: ED50 Subcutaneous): 10.4 mg/kg; MIC [21]: > 50 µg/mL; MIC [23]: 50 µg/mL (≈ 59 µM); MIC [24]: > 50 µg/mL
